Tests used:
yeast = test: Yeast count of spent brewer's / wet distiller's grains stored at ambient temperature; format: cell-based
Experimental: (§1) Samples of Portion 1 (“AR”), Portion 3 (“SO”) and Portion 5 (“SH”) were then delivered to a microbiological testing facility about 15 kilometres from the treatment laboratory. Each was tested for initial total microbial, yeast and mould counts, respectively.
(§2) Separate untreated samples were similarly stored under insect-proof screens at ambient temperature for seven days (as shown in Tables 1 and 2). During the trial period the ambient temperature ranged from 11 to 33 degrees C.
(§3) The free moisture content on the initial spent brewer's grains was determined to be 78.1% m/m. After exposure to the environment for seven days, all of the samples were tested at a South African National Accreditation System (SANAS) approved microbiological testing facility. Each was tested for total micro-organism, yeast and mould counts to determine the affect of the various treatments. A similar procedure to that described in K. A. Rosentrater et al, Food Bioprocess Technol (2008) was used for the microbiological evaluation.
At the laboratory, the samples were thoroughly mixed and initially split into a first portion (Portion 1) and a second portion (Portion 2). Portion 1 was left untreated. A sample of Portion 1, was delivered immediately to a microbiological testing facility about 15 kilometres away from the treatment laboratory and was tested for initial total microbial, yeast and mould counts, respectively. No water removal prior to treatment was done in this experiment as was the case in Example 8 wherein a similar wet material was partially dewatered by pressing and the residue treated with 10% (w/w/) calcium oxide.
(§4) Samples from Portion 2 were subjected to treatment with varying amounts of a powdered, commercially-available calcium oxide containing approximately 94% calcium oxide (CaO) as shown in Table 32. The treatments varied from 2.5 to 10% (w/w) calcium oxide addition. The samples were stored in batches (according to the calcium oxide treatment) under insect-proof screens at ambient temperature for fifty six days. Separate untreated samples were similarly stored under insect-proof screens at ambient temperature for a total of 56 days. During the trial period the ambient temperature ranged from 10 to 30 degrees C. As this period was the southern hemisphere spring/early summer, the humidity as well as ambient temperatures varied widely.
as §3, with “79.4%” for “78.1%”
(§5) Samples from each treatment were drawn every seven days. No further calcium oxide treatment or agitation took place after the initial mix. In each case the entire sample was isolated and delivered to the microbiological testing facility.
The calcium oxide treatment trial described in Example 9 wherein wet distiller's grains were treated with 2.5%, 5% and 10.0% calcium oxide, respectively, versus untreated material was repeated using lower doses of calcium oxide. In this trial the same source of wet distiller's grains (again with now partial water removal prior to treatment) was treated. Also, the same protocol as described in Example 9 was applied, but at lower doses of calcium oxide i.e. 0.5%, 1.0%, 1.5%, 2.0% and 2.5%, respectively, versus untreated material.
In this trial the same source of wet distiller's grains (again with now partial water removal prior to treatment) was treated. Also, the same protocol as described in Example 9 was applied.

total micro-organism = test: Total microbial (plate) count of spent brewer's / wet distiller's grains stored at ambient temperature; format: cell-based
Source text: Samples of spent brewer's grains were drawn from the discharge line of a brewery in South Africa. The samples, packed in dry ice in a cold box, were transported over a distance of approximately 40 kilometres to a laboratory. At the laboratory, the samples were thoroughly mixed and initially split into a first portion (Portion 1) and a second portion (Portion 2). The second portion was about twice the size of the first. Portion 1 was left untreated. Material produced from Portion 1 and Portion 2 is designated below using the code “AR” (as received).
Portion 2 was placed on a clean, standard, laboratory screen deck with 1.4 mm apertures supported from below. As much water as possible was manually squeezed out with a clean flat plastic disc and the sample was then manually remixed after the squeezing. The squeezed material was then split into a third portion (Portion 3) and a fourth portion (Portion 4) of approximately the same size. Material produced from Portion 3 and Portion 4 is designated below using the code “SO” (squeezed).
Portion 4 was added to a high speed kitchen food-shredder and shredded for about two minutes. The shredded material was then returned to the 1.4 mm aperture screen and squeezed again, as described above, and manually remixed again after the second squeezing to produce a shredded and squeezed portion (Portion 5). Material produced from Portion 5 is designated below using the code “SH” (shredded).
as §1, §2
After exposure to the environment for seven days, all of the samples were tested at a South African National Accreditation System (SANAS) approved microbiological testing facility. Each was tested for total micro-organism, yeast and mould counts to determine the affect of the various treatments.
Samples of spent brewer's grains were drawn from the discharge line of a brewery in South Africa.
At the laboratory, the samples were thoroughly mixed and initially split into a first portion (Portion 1) and a second portion (Portion 2). Portion 1 was left untreated. A sample of Portion 1, was delivered immediately to a microbiological testing facility about 15 kilometres away from the treatment laboratory and was tested for initial total microbial, yeast and mould counts, respectively.
as §4, with “Separate untreated samples were similarly stored under insect-proof screens at ambient temperature for a total of 56 days.” left out
as §5
(§6) In this trial the same source of wet distiller's grains (again with now partial water removal prior to treatment) was treated.
as §6

[1] = wet distiller's grains, 0.5% CaO (w/w), day 2
[2] = wet distiller's grains, 1.0% CaO (w/w), day 1
[3] = wet distiller's grains, 1.5% CaO (w/w), day 10
[4] = wet distiller's grains, 2.0% CaO (w/w), day 2
[5] = wet distiller's grains, 2.5% CaO (w/w), day 14
[6] = wet distiller's grains, 5.0% CaO (w/w), day 21
[7] = wet distiller's grains, 10.0% CaO (w/w), day 14
[8] = dose 5% w/w, distiller's grains not de-watered, Examples 16-18

Which results are given for `[O]=[Ca]` [calcium oxide]?
Yeast Count (yeast; 5% CaO (w/w) powder, week 4): 10 cfu/gram; Yeast Count (yeast; [1]): <10 cfu/gram; Yeast Count (yeast; [2]): <10 cfu/gram; Yeast Count (yeast; [3]): <10 cfu/gram; Yeast Count (yeast; [4]): <10 cfu/gram; Yeast Count (yeast; [5]): 52,000 cfu/gram; Yeast Count (yeast; [6]): 10 cfu/gram; Yeast Count (yeast; [7]): 120 cfu/gram; shelf life of fermentation residue (total micro-organism; 2.5% (w/w) calcium oxide powder added to the fermentation residue): at least 10 days; Total plate count (total micro-organism; 5% CaO (w/w) powder, week 1): 2770 cfu/gram; Total plate count (total micro-organism; 5% CaO (w/w) powder, week 2): 200 cfu/gram; Total plate count (total micro-organism; 5% CaO (w/w) powder, week 3): 4800 cfu/gram; Total plate count (total micro-organism; 5% CaO (w/w) powder, week 4): 10 cfu/gram; Total plate count (total micro-organism; 5% CaO (w/w) powder, week 5): 10 cfu/gram; shelf life of fermentation residue (total micro-organism; 10% (w/w) calcium oxide added to the fermentation residue): at least 63 days; effect on micro-organism levels (total micro-organism; calcium oxide 0.5% (w/w), Example 14): only a very limited effect; suppressed microbial levels up to day (total micro-organism; calcium oxide 1.0% (w/w), Example 14): 8 days; preservation effect period (total micro-organism; calcium oxide 2.5% (w/w), Example 9): only the first week; preservation effect period (total micro-organism; calcium oxide 5.0% (w/w), Example 9): 49 days; preservation effect period (total micro-organism; calcium oxide 10% (w/w), Example 9): 56 days; preservation period (total micro-organism; calcium oxide 10% (w/w), Example 18): 9 week; total microbial count after treatment (total micro-organism; calcium oxide 10% (w/w), spent brewer's grains, initial count 3,300,000): zero; preservation effect period (total micro-organism; calcium oxide levels of 2.0% and 2.5% (w/w), Example 14): 10 days; microbial counts (total micro-organism; calcium oxide powder 5% and 10% (w/w), end of the 9 week period): <10 to 20 cfu/gram; preservation time with total microbial counts <10 cfu/g (total micro-organism; [8]): ≧9 weeks; preservation time with total microbial counts <100 cfu/g (total micro-organism; [8]): ≧9 weeks; preservation time with total microbial counts <1000 cfu/g (total micro-organism; [8]): ≧9 weeks; preservation time with total microbial counts <10 cfu/g (total micro-organism; dose 10% w/w, distiller's grains not de-watered, Examples 16-18): ≧9 weeks; Total plate count (total micro-organism; wet distiller's grains, 0.5% CaO (w/w), day 1): 1.01E+06 cfu/gram; Total plate count (total micro-organism; [1]): 680000 cfu/gram; Total plate count (total micro-organism; wet distiller's grains, 0.5% CaO (w/w), day 3): 35000 cfu/gram; Total plate count (total micro-organism; wet distiller's grains, 0.5% CaO (w/w), day 6): 5.60E+07 cfu/gram; Total plate count (total micro-organism; wet distiller's grains, 0.5% CaO (w/w), day 8): 3.30E+06 cfu/gram; Total plate count (total micro-organism; [2]): 3.50E+06 cfu/gram; Total plate count (total micro-organism; wet distiller's grains, 1.0% CaO (w/w), day 2): 3600 cfu/gram; Total plate count (total micro-organism; wet distiller's grains, 1.0% CaO (w/w), day 3): 720 cfu/gram; Total plate count (total micro-organism; wet distiller's grains, 1.0% CaO (w/w), day 6): 120 cfu/gram; Total plate count (total micro-organism; wet distiller's grains, 1.0% CaO (w/w), day 8): 320 cfu/gram; Total plate count (total micro-organism; wet distiller's grains, 1.0% CaO (w/w), day 10): 4.70E+07 cfu/gram; Total plate count (total micro-organism; wet distiller's grains, 1.5% CaO (w/w), day 1): 26200 cfu/gram; Total plate count (total micro-organism; wet distiller's grains, 1.5% CaO (w/w), day 2): 110 cfu/gram; Total plate count (total micro-organism; wet distiller's grains, 1.5% CaO (w/w), day 3): 40 cfu/gram; Total plate count (total micro-organism; wet distiller's grains, 1.5% CaO (w/w), day 6): 90 cfu/gram; Total plate count (total micro-organism; wet distiller's grains, 1.5% CaO (w/w), day 8): 730 cfu/gram; Total plate count (total micro-organism; [3]): 70 cfu/gram; Total plate count (total micro-organism; wet distiller's grains, 2.0% CaO (w/w), day 1): 1090 cfu/gram; Total plate count (total micro-organism; [4]): 130 cfu/gram; Total plate count (total micro-organism; wet distiller's grains, 2.0% CaO (w/w), day 3): 130 cfu/gram; Total plate count (total micro-organism; wet distiller's grains, 2.0% CaO (w/w), day 6): 340 cfu/gram; Total plate count (total micro-organism; wet distiller's grains, 2.0% CaO (w/w), day 8): 180 cfu/gram; Total plate count (total micro-organism; wet distiller's grains, 2.0% CaO (w/w), day 10): 60 cfu/gram; Total plate count (total micro-organism; wet distiller's grains, 2.5% CaO (w/w), day 1): 5300 cfu/gram; Total plate count (total micro-organism; wet distiller's grains, 2.5% CaO (w/w), day 2): 60 cfu/gram; Total plate count (total micro-organism; wet distiller's grains, 2.5% CaO (w/w), day 3): 240 cfu/gram; Total plate count (total micro-organism; wet distiller's grains, 2.5% CaO (w/w), day 6): 90 cfu/gram; Total plate count (total micro-organism; wet distiller's grains, 2.5% CaO (w/w), day 7): 10 cfu/gram; Total plate count (total micro-organism; wet distiller's grains, 2.5% CaO (w/w), day 8): 150 cfu/gram; Total plate count (total micro-organism; wet distiller's grains, 2.5% CaO (w/w), day 10): 50 cfu/gram; Total plate count (total micro-organism; [5]): 74,000 cfu/gram; Total plate count (total micro-organism; wet distiller's grains, 2.5% CaO (w/w), day 21): 1,010,000 cfu/gram; Total plate count (total micro-organism; wet distiller's grains, 2.5% CaO (w/w), day 56): 6,800,000 cfu/gram; Total plate count (total micro-organism; wet distiller's grains, 5.0% CaO (w/w), day 7): 660 cfu/gram; Total plate count (total micro-organism; wet distiller's grains, 5.0% CaO (w/w), day 14): 82,000 cfu/gram; Total plate count (total micro-organism; [6]): 180 cfu/gram; Total plate count (total micro-organism; wet distiller's grains, 5.0% CaO (w/w), day 42): 20 cfu/gram; Total plate count (total micro-organism; wet distiller's grains, 5.0% CaO (w/w), day 49): 50 cfu/gram; Total plate count (total micro-organism; wet distiller's grains, 5.0% CaO (w/w), day 56): 3,400 cfu/gram; Total plate count (total micro-organism; wet distiller's grains, 10.0% CaO (w/w), day 7): 740 cfu/gram; Total plate count (total micro-organism; [7]): 150 cfu/gram; Total plate count (total micro-organism; wet distiller's grains, 10.0% CaO (w/w), day 21): 100 cfu/gram; Total plate count (total micro-organism; wet distiller's grains, 10.0% CaO (w/w), day 42): 130 cfu/gram; Total plate count (total micro-organism; wet distiller's grains, 10.0% CaO (w/w), day 49): 80 cfu/gram; Total plate count (total micro-organism; wet distiller's grains, 10.0% CaO (w/w), day 56): 460 cfu/gram

Reference: patent US20120009280A1, “METHOD OF REDUCING THE RATE OF DEGRADATION OF A BIOLOGICAL MATERIAL” (Bio-Energy Ingredients Limited, priority 2009, published 2012)
